Consider eleven molecules from patent US4921866A, “1,3-dioxanes” (Imperial Chemical Industries plc, priority 1987, dated 1990).

Data set [1] is described as follows: TXA2 antagonist and/or TXA2 synthase inhibitory properties (general statement, standard tests). As to conditions: qualitative statement. Here is the method:
(§1) The samples treated with anti-coagulant are first incubated at 37° C. with collegen (at about 100 micro M), then mixed with the cyclooxygenase inhibitor indomethancin (at about […]), centrifuged and the level of the TXA2 metabolite TXB2 determined by a standard radioimmunoassay technique. By comparison of the amount of TXB2 present in the plasma from animals dosed with test compound with that in the plasma of a control group dosed with placebo, the TXA2 synthase inhibitory properties may be assessed.

The nature of data set [2]: observation of signs of toxicity in rats in test (f). The note with it: oral dose of 100 mg/kg to rats. In kind it is in vivo, rat.
The target in data set [3] is T1, TXA2 synthase (Homo sapiens, UniProt P24557).
T1 construct: using a human platelet microsomal TXA2 synthase preparation; from tissue; host or cells: human platelet microsomes
T1 sequence (P24557 1-533): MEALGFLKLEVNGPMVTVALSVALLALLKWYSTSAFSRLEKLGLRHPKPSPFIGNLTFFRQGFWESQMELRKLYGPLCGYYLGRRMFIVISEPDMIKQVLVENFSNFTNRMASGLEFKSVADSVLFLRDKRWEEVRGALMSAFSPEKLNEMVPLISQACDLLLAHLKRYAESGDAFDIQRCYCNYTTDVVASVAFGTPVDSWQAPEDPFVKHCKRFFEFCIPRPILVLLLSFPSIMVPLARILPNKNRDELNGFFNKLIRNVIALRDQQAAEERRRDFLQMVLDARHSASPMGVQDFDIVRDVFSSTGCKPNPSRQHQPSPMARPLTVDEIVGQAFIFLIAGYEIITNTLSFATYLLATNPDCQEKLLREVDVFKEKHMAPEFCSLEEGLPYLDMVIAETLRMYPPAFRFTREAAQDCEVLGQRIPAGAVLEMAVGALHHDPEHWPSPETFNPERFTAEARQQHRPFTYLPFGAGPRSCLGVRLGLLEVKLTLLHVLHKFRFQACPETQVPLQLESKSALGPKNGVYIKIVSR
The data set is described as follows: test (e): in vitro TXA2 synthase inhibition, human platelet microsomal TXA2 synthase preparation. In kind it is biochemical.

The target of data set [4] is T2, TXA2 receptor (Rattus norvegicus, UniProt P34978).
T2 construct: The rat aortic strip model; from tissue; host or cells: rat aortic strip
T2 sequence (P34978 1-341): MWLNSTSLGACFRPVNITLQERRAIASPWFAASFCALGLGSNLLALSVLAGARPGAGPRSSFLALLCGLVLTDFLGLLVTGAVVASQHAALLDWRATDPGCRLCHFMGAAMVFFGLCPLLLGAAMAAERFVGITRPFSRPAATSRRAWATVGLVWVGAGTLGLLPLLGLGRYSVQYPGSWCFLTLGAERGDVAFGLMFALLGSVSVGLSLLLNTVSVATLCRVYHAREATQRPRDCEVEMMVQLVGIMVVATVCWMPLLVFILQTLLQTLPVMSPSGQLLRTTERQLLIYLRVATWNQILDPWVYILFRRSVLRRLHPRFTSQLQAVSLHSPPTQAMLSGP
In words: test (a): rat aortic strip model, U46619 as agonist. Type of data set: cell-based. The note with it: read-out: pA2 (converted). The text has this: (a) The rat aortic strip model (based on that devised by Piper and Vane (Nature, 1969, 223, 29-35) in the rabbit) using as agonist the TXA2 mimetic agent known as U46619 (described by R. L. Jones et alia in "Chemistry, Biochemistry and Pharmacological Activity of Prostanoids" edited by S. M. Roberts and F. Scheinmann, at page 211; Pergamon Press, 1979);

Data set [5] addresses T3, TXA2 receptor (Homo sapiens, UniProt P21731).
T3 construct: aggregating human, citrated, platelet-rich plasma; endogenous in cells; host or cells: human platelets in citrated platelet-rich plasma
T3 sequence (P21731 1-343): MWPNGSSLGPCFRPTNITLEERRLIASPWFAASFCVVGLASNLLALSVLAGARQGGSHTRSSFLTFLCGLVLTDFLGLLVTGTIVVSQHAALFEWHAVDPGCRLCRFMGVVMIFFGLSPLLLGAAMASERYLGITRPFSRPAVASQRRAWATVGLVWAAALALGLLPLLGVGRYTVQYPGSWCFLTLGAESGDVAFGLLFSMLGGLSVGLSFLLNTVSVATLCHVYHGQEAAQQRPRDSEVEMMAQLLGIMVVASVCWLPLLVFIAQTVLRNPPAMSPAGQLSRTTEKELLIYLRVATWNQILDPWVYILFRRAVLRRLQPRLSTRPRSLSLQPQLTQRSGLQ
In words: test (b): blood platelet aggregation test, U46619 stimulated, human platelet-rich plasma. Type of data set: cell-based. An excerpt: (b) a blood platelet aggregation test based on that described by Born (Nature, 1962, 194, 927-929) and involving:
(i) aggregating human, citrated, platelet-rich plasma by addition of the TXA2 mimetic agent U46619 so that a dose-response curve is generated;
(ii) generating a dose-response curve for U46619 stimulated platelet aggregation in the presence of increasing amounts of test compound (generally in the range 10^-5 M to 10^-10 M); and
(iii) calculating a KB value indicating potency of TXA2 antagonism for the test compound, average over several concentrations, from the calculated 50% response value for U46619 aggregation in the presence and absence of test compound; or […]

The subject of data set [6] is TXA2 synthase. In words: test (f): TXB2 production in blood samples from dosed laboratory animals. As to conditions: 3 hours following an oral dose of 100 mg/kg to rats. In kind it is in vivo, rat. As to the method: as §1

“Also recorded” adds a separate entry of the source.

For `O=C(O)CC/C=C\C[C@@H]1CO[C@H](Cc2cccnc2)O[C@@H]1c1ccccc1O` (relative stereo) [Example 12, 4(Z)-6-([2,4,5-cis]-4-o-hydroxyphenyl-2-[3-pyridylmethyl]-1,3-dioxan-5-yl)hexenoic acid], the “TXA2 antagonist and/or TXA2 synthase inhibitory properties” value in data set [1] was “combined antagonist and TXA2 synthase inhibitory properties”. `O=C(O)CCCC/C=C\C[C@@H]1CO[C@H](c2ccncc2)O[C@@H]1c1ccccc1O` (relative stereo) [Example 9, 6(Z)-8-([2,4,5-cis]-4-o-hydroxyphenyl-2-[4-pyridyl]-1,3-dioxan-5-yl)octenoic acid]: the “TXA2 antagonist and/or TXA2 synthase inhibitory properties” value in data set [1] is “predominantly TXA2 synthase inhibitory properties”. Still for that read-out and setting: for `O=C(O)CCC/C=C\C[C@@H]1CO[C@H](Cc2cccnc2)O[C@@H]1c1ccccc1` (relative stereo) [Example 16, 5(Z)-7-(4-phenyl-2-[3-pyridylmethyl]-1,3-dioxan-5-yl)heptenoic acid] the value was “predominantly TXA2 synthase inhibitory properties”; for `CC(C)(c1cccnc1)[C@H]1OC[C@@H](C/C=C\CCCC(=O)O)[C@@H](c2ccccc2O)O1` (relative stereo) [Example 19, 5(Z)-7-([2,4,5-cis]-4-o-hydroxyphenyl-2[1-(3-pyridyl)-1-methylethyl]-1,3-dioxan-5-yl)heptenoic acid], “combined antagonist and TXA2 synthase inhibitory properties”; for `CC(C)(Oc1cccnc1)[C@H]1OC[C@@H](C/C=C\CCC(=O)O)[C@@H](c2ccccc2O)O1` (relative stereo) [Example 23, 4(Z)-6-([2,4,5-cis]-4-o-hydroxyphenyl-2-[1-(3-pyridyloxy)-1-methylethyl]-1,3-dioxan-5-yl)hexenoic acid], “combined antagonist and TXA2 synthase inhibitory properties”. On the same count and under the same terms, for `CC(C)(Cc1cccnc1)[C@H]1OC[C@@H](C/C=C\CCC(=O)O)[C@@H](c2ccccc2O)O1` (relative stereo) [Example 18, 4(Z)-6-([2,4,5-cis]-4-o-hydroxyphenyl-2-[2-(3-pyridyl)-1,1-dimethylethyl]-1,3-dioxan-5-yl)hexenoic acid] the value was “combined antagonist and TXA2 synthase inhibitory properties”; for `CC(C)(c1cccnc1)[C@H]1OC[C@@H](C/C=C\CCC(=O)O)[C@@H](c2ccccc2O)O1` (relative stereo) [Example 17, 4(Z)-6-([2,4,5-cis]-4-o-hydroxyphenyl-2-[1-(3-pyridyl)-1-methylethyl]-1,3-dioxan-5-yl)hexenoic acid], “combined antagonist and TXA2 synthase inhibitory properties”. Same read-out and setting: the same measure for `O=C(O)CC/C=C\C[C@@H]1CO[C@H](Cc2ccccn2)O[C@@H]1c1ccccc1O` (relative stereo) [Example 11, 4(Z)-6-([2,4,5-cis]-4-o-hydroxyphenyl-2-[2-pyridylmethyl]-1,3-dioxan-5-yl)hexenoic acid]: “TXA2 antagonist properties”; for `O=C(O)CC/C=C\C[C@@H]1CO[C@H](c2ccccn2)O[C@@H]1c1ccccc1O` (relative stereo) [Example 4, 4(Z)-6-([2,4,5-cis]-4-o-hydroxyphenyl-2-[2-pyridyl]-1,3-dioxan-5-yl)hexenoic acid]: “TXA2 antagonist properties”. As a reminder, the IC50 is the concentration at which inhibition is half-maximal. `O=C(O)CC/C=C\C[C@@H]1CO[C@H](c2cccnc2)O[C@@H]1c1ccccc1O` (relative stereo) [Example 1, 4(Z)-6-([2,4,5-cis]-4-o-hydroxyphenyl-2-[3-pyridyl]-1,3-dioxan-5-yl)hexenoic acid]: the “observable signs of toxicity to the test animals” value in data set [2] was “without any observable signs of toxicity”. In addition, the “TXA2 antagonist and/or TXA2 synthase inhibitory properties” value in data set [1] was “combined antagonist and TXA2 synthase inhibitory properties; also recorded: both TXA2 antagonist and TXA2 synthase inhibitory properties”. Moreover, the IC50 at TXA2 synthase [3] turned out to be 3140 nM. Moreover, the values for the Kb at TXA2 receptor [4] and at TXA2 receptor [5] were 79.4 nM and 17 nM, respectively. In addition, the “inhibition of TXB2 production” value with TXA2 synthase [6] is listed as “essentially complete inhibition of TXB2 production”. As to `O=C(O)CCC/C=C\C[C@@H]1CO[C@H](Cc2cccnc2)O[C@@H]1c1ccccc1O` (relative stereo) [Example 2, 5(Z)-7-([2,4,5-cis]-4-o-hydroxyphenyl-2-[3-pyridylmethyl]-1,3-dioxan-5-yl)heptenoic acid], the “TXA2 antagonist and/or TXA2 synthase inhibitory properties” value in data set [1] is “combined antagonist and TXA2 synthase inhibitory properties”.
